Laboratory results as given in paper PMC8466554, “Heteroaryl-Ethylenes as New Lead Compounds in the Fight against High Priority Bacterial Strains” (Antibiotics, 2021).
Values joined by “and” are separate entries in the source; they are usually repeats but may differ in a detail not shown here. Identical values can stand only once. Like-named read-outs stand apart in the source and are kept apart here.

Columns and labels:
S.aureus Mu50-VISA = assay: MIC and MBC microtiter plate assay; type: cell-based, Staphylococcus aureus
S.aureus USA300-CAMRSA = assay: MIC and MBC microtiter plate assay; type: cell-based, Staphylococcus aureus
[1] = tested on: E. faecalis ATCC51299-VRE; assay: MIC and MBC microtiter plate assay, also with different inocula; type: cell-based
[2] = tested on: K. pneumoniae ATCC BAA-2814; assay: MIC microtiter plate assay; type: cell-based, Klebsiella pneumoniae; conditions: K. pneumoniae ATCC BAA-2814 (MDR strain)
P. aeruginosa ATCC27853 = assay: MIC microtiter plate assay; type: cell-based, Pseudomonas aeruginosa
CaCo-2 cells = assay: MTT cytotoxicity assay; type: cell-based, human; conditions: 24 h of incubation relative to untreated controls
Procedure: To evaluate the biological activity of the PBn series, compounds were screened for toxicity against the colon-rectal cancer cell line CaCo-2 (ATCC HTB-37). These human cancer cells were treated with solutions of the compounds at decreasing concentrations, starting from 100 μM up to 0.01 μM. The reference compound used for these assays was 5-Fluorouracil (5-Fu), a pyrimidine analogue belonging to the family of antimetabolite. […] Briefly, human colorectal adenocarcinoma cells (CaCo-2 HTB-37^TM Colorectal Adenocarcinoma Human, American Type Culture Collection, Manassas, VA, USA) were grown in Dulbecco’s MEM (DMEM) with 10% heat-inactivated fetal bovine serum, 2 mM L-Alanyl-L-Glutamine, penicillin-streptomycin (50 units-50 μg for mL) and incubated at 37 °C in a humidified atmosphere of 5% CO2, 95% air. CaCo-2 cells were plated in 96 well pates and incubated at 37 °C. The PBn series compounds and 5-FU were prepared as a 1 mM solution in 10 mL with 0.01% DMSO. Then, 24 h after plating, cells were treated with 20 μL of each solution. Untreated cells were used as controls. […] The results were read on a multiwell scanning spectrophotometer (AF2200 plate reader, Eppendorf, Milan, Italy), using a wavelength of 569 nm.

[3] = tested on: E. faecalis ATCC29212-VSE; assay: MIC and MBC microtiter plate assay; type: cell-based
A. baumannii ATCC17978 = assay: MIC and MBC microtiter plate assay, also with different inocula; type: cell-based, Acinetobacter baumannii; conditions: A. baumannii ATCC17978
S.aureus ATCC12598-MSSA = assay: as above; type: cell-based, Staphylococcus aureus
S.aureus ATCC29213-MSSA = assay: MIC and MBC microtiter plate assay; type: cell-based, Staphylococcus aureus
E. coli ATCC25922 = assay: MIC and MBC microtiter plate assay, also with different inocula; type: cell-based, Escherichia coli
K. pneumoniae ATCC700603 = assay: MIC microtiter plate assay; type: cell-based, Klebsiella pneumoniae
[4] = tested on: Gram-positive and Gram-negative ATCC strains; assay: MIC and MBC, summary over Gram-positive and Gram-negative strains; type: cell-based; conditions: by MBC/MIC ratio
[5] = E. faecalis ATCC51299-VRE, value in brackets
[6] = S.aureus ATCC12598-MSSA, value in brackets

Q: How did the MIC (S.aureus Mu50-VISA) turn out when `CN(C)c1ccc(/C=C/c2ccc3ccccc3[n+]2C)cc1.[I-]` [PB1] was run?
A: 32 µg/mL

Q: What about the MIC (S.aureus Mu50-VISA; value in brackets) of the same compound?
A: 76.87 µM

Q: What about the MIC (S.aureus USA300-CAMRSA) of the same compound?
A: 2 µg/mL

Q: And the MIC (S.aureus USA300-CAMRSA; value in brackets)?
A: 4.80 µM

Q: And the MIC ([1]; E. faecalis ATCC51299-VRE)?
A: 32 mg/L

Q: And the MIC [1, 5]?
A: 76.87 µM

Q: And the MIC [2]?
A: > 128 µg/mL

Q: And the MIC ([2]; value in brackets)?
A: > 307.47 µM

Q: And the MIC (P. aeruginosa ATCC27853)?
A: > 128 µg/mL

Q: What about the MIC (P. aeruginosa ATCC27853; value in brackets) of the same compound?
A: > 307.47 µM

Q: And the IC50 (CaCo-2 cells)?
A: 1.2 µM

Q: What about the MIC [3] of the same compound?
A: 32 µg/mL

Q: What about the MIC ([3]; value in brackets) of the same compound?
A: 76.87 µM

Q: What about the MIC (A. baumannii ATCC17978) of the same compound?
A: 128 µg/mL

Q: And the MIC (A. baumannii ATCC17978; value in brackets)?
A: 307.47 µM

Q: And the MIC (S.aureus ATCC12598-MSSA; S.aureus ATCC12598-MSSA)?
A: 2 mg/L

Q: What about the MIC (S.aureus ATCC12598-MSSA; [6]) of the same compound?
A: 4.80 µM

Q: What about the MIC (S.aureus ATCC29213-MSSA) of the same compound?
A: 4 µg/mL

Q: And the MIC (S.aureus ATCC29213-MSSA; value in brackets)?
A: 9.61 µM

Q: And the MIC (E. coli ATCC25922)?
A: 16 µg/mL

Q: And the MIC (E. coli ATCC25922; value in brackets)?
A: 38.43 µM

Q: And the MIC (K. pneumoniae ATCC700603)?
A: > 128 µg/mL

Q: And the MIC (K. pneumoniae ATCC700603; value in brackets)?
A: > 307.47 µM

Q: Which MBC (S.aureus Mu50-VISA) does the source give for `Clc1ccc(Cl)c(-c2ccc(/C=C/c3cc[n+](-c4ncccn4)cc3)o2)c1.F[P-](F)(F)(F)(F)F` [PB5] here?
A: 4 µg/mL

Q: And the MIC (S.aureus Mu50-VISA)?
A: 2 µg/mL

Q: And the MBC (S.aureus Mu50-VISA; value in brackets)?
A: 7.40 µM

Q: What about the MIC (S.aureus Mu50-VISA; value in brackets) of the same compound?
A: 3.70 µM

Q: And the MBC (S.aureus USA300-CAMRSA)?
A: 4 µg/mL

Q: What about the MBC (S.aureus USA300-CAMRSA; value in brackets) of the same compound?
A: 7.40 µM

Q: What about the MIC (S.aureus USA300-CAMRSA; value in brackets) of the same compound?
A: 0.93 µM

Q: And the MBC ([1]; E. faecalis ATCC51299-VRE)?
A: 128 µg/mL

Q: What about the MIC ([1]; E. faecalis ATCC51299-VRE) of the same compound?
A: 4 mg/L

Q: And the MBC [1, 5]?
A: 236.94 µM

Q: What about the MIC [1, 5] of the same compound?
A: 7.40 µM

Q: What about the MIC ([1]; E. faecalis ATCC51299, inoculum 1.00101 (1 × 10^1 CFU/mL)) of the same compound?
A: 0.5 mg/L and 0.93 μM

Q: What about the MIC ([1]; E. faecalis ATCC51299, inoculum 1.00102 (1 × 10^2 CFU/mL)) of the same compound?
A: 1 mg/L and 1.85 μM

Q: And the MIC ([1]; E. faecalis ATCC51299, inoculum 1.00103 (1 × 10^3 CFU/mL))?
A: 1 mg/L and 1.85 μM

Q: What about the MIC ([1]; E. faecalis ATCC51299, inoculum 1.00104 (1 × 10^4 CFU/mL)) of the same compound?
A: 1 mg/L and 1.85 μM

Q: What about the MIC ([1]; E. faecalis ATCC51299, inoculum 1.00105 (1 × 10^5 CFU/mL, standard)) of the same compound?
A: 4 mg/L and 7.40 μM

Q: What about the MIC ([1]; E. faecalis ATCC51299, inoculum 1.00106 (1 × 10^6 CFU/mL)) of the same compound?
A: 4 mg/L and 7.40 μM

Q: What about the MIC ([1]; E. faecalis ATCC51299, inoculum 1.00107 (1 × 10^7 CFU/mL)) of the same compound?
A: 4 mg/L and 7.40 μM

Q: What about the MIC [2] of the same compound?
A: > 128 µg/mL

Q: What about the MIC ([2]; value in brackets) of the same compound?
A: > 236.94 µM

Q: What about the MIC (P. aeruginosa ATCC27853) of the same compound?
A: > 128 µg/mL

Q: What about the MIC (P. aeruginosa ATCC27853; value in brackets) of the same compound?
A: > 236.94 µM

Q: What about the IC50 (CaCo-2 cells) of the same compound?
A: 3.9 µM

Q: And the MBC [3]?
A: 128 µg/mL

Q: And the MIC [3]?
A: 4 µg/mL

Q: What about the MBC ([3]; value in brackets) of the same compound?
A: 236.94 µM

Q: And the MIC ([3]; value in brackets)?
A: 7.40 µM

Q: And the MIC (A. baumannii ATCC17978)?
A: > 128 µg/mL

Q: And the MIC (A. baumannii ATCC17978; value in brackets)?
A: > 236.94 µM

Q: What about the MIC (S.aureus ATCC12598-MSSA; S. aureus ATCC12598, inoculum 1.00101 (1 × 10^1 CFU/mL)) of the same compound?
A: 0.03 mg/L and 0.06 μM

Q: And the MIC (S.aureus ATCC12598-MSSA; S. aureus ATCC12598, inoculum 1.00102 (1 × 10^2 CFU/mL))?
A: 0.03 mg/L and 0.06 μM

Q: And the MIC (S.aureus ATCC12598-MSSA; S. aureus ATCC12598, inoculum 1.00103 (1 × 10^3 CFU/mL))?
A: 0.06 μM and 0.03 mg/L

Q: And the MIC (S.aureus ATCC12598-MSSA; S. aureus ATCC12598, inoculum 1.00104 (1 × 10^4 CFU/mL))?
A: 0.06 mg/L and 0.12 μM

Q: And the MIC (S.aureus ATCC12598-MSSA; S. aureus ATCC12598, inoculum 1.00105 (1 × 10^5 CFU/mL, standard))?
A: 4 mg/L and 7.40 μM

Q: And the MIC (S.aureus ATCC12598-MSSA; S. aureus ATCC12598, inoculum 1.00106 (1 × 10^6 CFU/mL))?
A: 4 mg/L and 7.40 μM

Q: And the MIC (S.aureus ATCC12598-MSSA; S. aureus ATCC12598, inoculum 1.00107 (1 × 10^7 CFU/mL))?
A: 8 mg/L and 14.81 μM

Q: And the MBC (S.aureus ATCC12598-MSSA; S.aureus ATCC12598-MSSA)?
A: 4 µg/mL

Q: What about the MIC (S.aureus ATCC12598-MSSA; S.aureus ATCC12598-MSSA) of the same compound?
A: 4 mg/L

Q: What about the MBC (S.aureus ATCC12598-MSSA; [6]) of the same compound?
A: 7.40 µM

Q: What about the MIC (S.aureus ATCC12598-MSSA; [6]) of the same compound?
A: 7.40 µM

Q: What about the MBC (S.aureus ATCC29213-MSSA) of the same compound?
A: 4 µg/mL

Q: What about the MIC (S.aureus ATCC29213-MSSA) of the same compound?
A: 1 µg/mL

Q: What about the MBC (S.aureus ATCC29213-MSSA; value in brackets) of the same compound?
A: 7.40 µM

Q: And the MIC (S.aureus ATCC29213-MSSA; value in brackets)?
A: 1.85 µM

Q: And the MIC (E. coli ATCC25922)?
A: 32 µg/mL

Q: And the MIC (E. coli ATCC25922; value in brackets)?
A: 59.24 µM

Q: What about the bactericidal/bacteriostatic activity [4] of the same compound?
A: strain-dependent bactericidal/bacteriostatic activity

Q: What about the MIC (K. pneumoniae ATCC700603) of the same compound?
A: > 128 µg/mL

Q: And the MIC (K. pneumoniae ATCC700603; value in brackets)?
A: > 236.94 µM

Q: `C[n+]1ccc(/C=C/c2ccc(-c3cc(Cl)ccc3Cl)o2)cc1.F[P-](F)(F)(F)(F)F` [PB6] was tested. Which MIC (S.aureus Mu50-VISA) did it give?
A: 4 µg/mL

Q: And the MIC (S.aureus Mu50-VISA; value in brackets)?
A: 8.73 µM

Q: What about the MIC (S.aureus USA300-CAMRSA) of the same compound?
A: 4 µg/mL

Q: What about the MIC (S.aureus USA300-CAMRSA; value in brackets) of the same compound?
A: 8.73 µM

Q: And the MIC ([1]; E. faecalis ATCC51299-VRE)?
A: 32 mg/L

Q: What about the MIC [1, 5] of the same compound?
A: 69.85 µM

Q: What about the MIC [2] of the same compound?
A: > 128 µg/mL

Q: What about the MIC ([2]; value in brackets) of the same compound?
A: > 279.40 µM

Q: What about the MIC (P. aeruginosa ATCC27853) of the same compound?
A: > 128 µg/mL

Q: What about the MIC (P. aeruginosa ATCC27853; value in brackets) of the same compound?
A: > 279.40 µM

Q: What about the IC50 (CaCo-2 cells) of the same compound?
A: 6.79 µM and 6.8 µM

Q: And the MIC [3]?
A: 32 µg/mL

Q: What about the MIC ([3]; value in brackets) of the same compound?
A: 69.85 µM

Q: What about the MIC (A. baumannii ATCC17978) of the same compound?
A: 64 µg/mL

Q: What about the MIC (S.aureus ATCC12598-MSSA; S.aureus ATCC12598-MSSA) of the same compound?
A: 8 mg/L

Q: What about the MIC (S.aureus ATCC12598-MSSA; [6]) of the same compound?
A: 17.46 µM

Q: And the MIC (S.aureus ATCC29213-MSSA)?
A: 4 µg/mL

Q: And the MIC (S.aureus ATCC29213-MSSA; value in brackets)?
A: 8.73 µM

Q: What about the MIC (E. coli ATCC25922) of the same compound?
A: > 128 µg/mL

Q: What about the MIC (E. coli ATCC25922; value in brackets) of the same compound?
A: > 279.40 µM

Q: What about the bactericidal/bacteriostatic activity [4] of the same compound?
A: strain-dependent bactericidal/bacteriostatic activity

Q: And the MIC (K. pneumoniae ATCC700603)?
A: > 128 µg/mL

Q: What about the MIC (K. pneumoniae ATCC700603; value in brackets) of the same compound?
A: > 279.40 µM
